Consider one compound from patent publication US20110190249A1, “THERAPEUTIC METHODS AND USES OF SAPOGENINS AND THEIR DERIVATIVES” (PHYTOPHARM PLC, priority 2002, published 2011).

The test system of one assay is caspase-3. The assay can be described thus: Glutamate induced caspase 3 activity in cortical neurones. The format is cell-based, rat. The conditions noted are these: 300 nM for 6 h after glutamate 100 microM 10 min; glutamate alone 131. How it is done: The objective of this study was to examine the anti-apoptotic effect of smilagenin on the caspase-3 activity, a marker of apoptosis, in rat primary cortical cultures exposed to glutamate
Rat cortical neurones were cultured for 6 days. At day 6, glutamate (100 microM, 10 min) was added. Then the cultures were washed and medium was replaced with fresh medium containing smilagenin or vehicle control (DMSO, 0.25%) for 6 h. After 6 h treatment, apoptosis was evaluated by measuring caspase 3, activity. Caspase 3 activity was detected by the cleavage of p-nitroaniline from a colorimetric caspase-3 substrate, acetyl-Asp-Glu-Val-Asp p-nitroanilide. […] has a high absorbance at 405 nm. Relative caspase-3 activity was measured as optical density. In addition the relative activity of caspase-3 was standardised to protein concentration of the sample, which was also measured as an optical density (Du et al, J Neurochem., 69, 1382-1388, 1997; Sawada et al, Faseb J., 14, 1202-1214, 2000).

For assay [1], the system named is rat mesencephalic dopaminergic neurones. The assay can be described thus: Treatment of dopaminergic neurones after MPP+ exposure (survival, neurites). Particulars: MPP+ 2 μM. The format is cell-based. An excerpt:
Smilagenin and sarsasapogenin also reverse the neurodegeneration caused by exposure to the neurotoxin 1-methyl-4-phenylpyridinium (MPP^+) in rat mesencephalic dopaminergic neurones; a model of Parkinson's disease in vitro.
Glial cell line-derived neurotrophic factor (GDNF) and brain-derived neurotrophic factor (BDNF), molecules that are involved in neuronal growth, and 17β-oestradiol were used as positive controls. Treatment with smilagenin and sarsasapogenin produced a significant increase in the neuronal survival compared to neurones exposed to MPP^+ alone (Table 8).
Exposure to MPP^+ caused not only a significant decrease in dopaminergic number but also in the percentage of neurites.

For assay [2], the system named is rat primary spinal motor neurones. Kind of assay: Glutamate-induced neurodegeneration in spinal motor neurones (LDH). Particulars: control 100 ± 1. The format is cell-based. How it is done:
The objective of this study was to examine the effects of sarsasapogenin and smilagenin on the survival of rat primary spinal motor neurones exposed to glutamate, which is known to induce neurodegeneration in this model of motor neurodegeneration.
Rat motor neurones were prepared according to the method described by (Martinou et al, Neuron, 8, 737-744, 1992). On day 10, medium was removed and the cultures were exposed to glutamate (4 microM) for 10 min at 37° C. in defined medium. After the glutamate exposure, cultures were washed with Dulbecco modified Eagle medium at 37° C. then placed in fresh culture medium containing test compounds. After 48 h, the extent of spinal motor neurone degeneration was determined by measuring the amount of lactate dehydrogenase (LDH) released into the culture medium as above.

A further assay has as its system aged Sprague-Dawley rats. Kind of assay: Y-maze learning and memory test in aged rats. It counts as in vivo, rat. The conditions noted are these: 18 mg kg−1 day−1 oral in food, 3 months. How it is done:
(§1) Aged Sprague-Dawley rats aged were divided into different groups, one control and groups treated for 2-3 months with either sarsasapogenin, episarsasapogenin cathylate or smilagenin (18 mg kg^−1 day^−1, n=10). A control group (n=14) of untreated young rats was also included in the study. The daily dose of drug was mixed in a minimum amount of food and was administered every morning separately to each rat.
A Y-maze apparatus was used for the learning and memory test. On the floor of each arm of the Y-maze is an array of copper rods to which electric current is applied whenever needed, with adjustable voltage. Each arm is 45 cm long and has a 15 W lamp at the end, which is turned on when needed. After 3 months drug administration, each rat was trained for 7 consecutive days, as follows. For each training session, the rat was put into one arm of the Y-maze, after two minutes rest, an electrical current was applied to the copper rods and the lamp of the clockwise arm was illuminated to indicate the non-stimulation area. If the rat went into that arm, one correct response was recorded, otherwise, one wrong response was recorded: This stimulation-response test was repeated 20 times each day, with a pause of 5 sec between each two consecutive tests. The number of correct responses following the twenty tests on the seventh day was used to express learning ability, (the higher the number the better the learning ability). The rats were then left resting for 30 days and the procedure was repeated once more. The number of correct responses of the 20 tests after the 30 day rest period was used to represent the memory ability

Assay [3] has as its system muscarinic acetylcholine receptor. Kind of assay: Brain muscarinic acetylcholine receptor density in aged rats (dual-site competitive ligand binding). The format is in vivo, rat. The conditions noted are these: 18 mg kg−1 day−1 oral, 2-3 months. The protocol:
as §1
Muscarinic acetylcholine receptor density in the brain was measured. Tissue was prepared as follows: brains were removed quickly after decapitation, frozen in dry ice, and transferred to a freezer. The brains were homogenised and the pellet was finally suspended in buffer.
The dual-site competitive ligand binding assay was used to measure muscarinic acetylcholine receptor density.

A further assay relates to dopamine (D) 1 receptor. Kind of assay: Dopamine D1 receptor density in aged rats. It counts as in vivo, rat. The conditions noted are these: aged rats treated 3 months; aged untreated 129.2±36.8, young 157.5±33.2. How it is done: as §1
(§2) By contrast, smilagenin and sarsasapogenin treatment in aged rats for 3 months restored the D1 and D2 receptor density (smilagenin 177±10.9; 217±45.7 fmol/mg protein; sarsasapogenin 172.0±44.0; 206.4±60.5 respectively).

The next assay concerns dopamine (D) 2 receptor. The assay can be described thus: Dopamine D2 receptor density in aged rats. The conditions noted are these: aged rats treated 3 months; aged untreated 153.8±40.5, young 200.6±50.9. The format is in vivo, rat. How it is done:
as §1, §2

The subject of another assay is BDNF. Kind of assay: BDNF levels in aged rats. The format is in vivo, rat. Particulars: aged rats treated 3 months; aged untreated 1.205±0.219, young 1.647±0.277. The protocol: as §1
The subject of a further assay is SOD-1 transgenic mice. Kind of assay: Survival and behaviour of SOD-1 mice (ALS model). Particulars: SOD mouse. It counts as in vivo. The text has this: Amyotrophic lateral sclerosis (ALS) is a progressive fatal neurodegenerative disorder that causes motor neurone degeneration, […], paralysis and death. The cause of this disease is heterogeneous: mutations in the Cu/Zn superoxide dismutase (SOD-1) gene is responsible for some forms of human ALS. Animal models of this disease include the SOD-1 transgenic mice over-expressing SOD-1 gene and the progressive motor neuropathy (pmn, a model of Charcot-Marie-Tooth) mice.

Regarding `C[C@@H]1CC[C@@]2(OC1)O[C@H]1C[C@H]3[C@@H]4CC[C@@H]5C[C@@H](O)CC[C@]5(C)[C@H]4CC[C@]3(C)[C@H]1[C@@H]2C` [smilagenin], in the assay on caspase-3, the “Caspase activity (% of control)” value is given as 105 % of control. The “Percentage of neurites in dopaminergic neurones after MPP+ exposure, Mean ± s.e.m (%)” value in [1] (0.03 nM, control 41 ± 4, MPP+ alone 27 ± 5) came to 41 ± 4%. Also, the “Dopaminergic neurones after MPP+ exposure (survival), Mean ± s.e.m (%)” value in assay [1] (treatment 0.03 nM, MPP+ alone 76 ± 4) is recorded as 111 ± 6%. The “Glutamate-induced neurodegeneration in spinal motor neurones, Mean ± s.e.m (%)” value was found to be 128 ± 4% in [2] (0.03 nM for 48 h after glutamate 4 microM 10 min), 154 ± 1% in assay [2] (3 nM for 48 h after glutamate 4 microM 10 min) and 144 ± 4% in assay [2] (300 nM for 48 h after glutamate 4 microM 10 min). The “Learning and memory ability (Y-maze)” value in the assay on aged Sprague-Dawley rats is “restored the learning and memory ability”. Further, the “Muscarinic acetylcholine receptor density in brain” value in assay [3] is given as “significantly restored”. In the assay on dopamine (D) 1 receptor, this compound returned a D1 receptor density of 177±10.9 fmol/mg protein. Also, the D2 receptor density in the assay on dopamine (D) 2 receptor came to 217±45.7 fmol/mg protein. For the same compound, the BDNF levels with BDNF came out at 1.342±0.07 ng/g tissue. Moreover, the Behavioural deficits entry with SOD-1 transgenic mice (oral administration) is “improve the behavioural deficits”. The “Lifespan (survival)” value in the assay with SOD-1 transgenic mice (oral administration (FIG. 5)) is “increase the lifespan”.
